Results on 32 molecules are retold here after patent US10336697B2, “Spiro[cyclobutane-1,3′-indolin]-2′-one derivatives as bromodomain inhibitors” (Orion Corporation, priority 2015, dated 2019).

Structures are written as SMILES. Like-named read-outs stand apart in the source and are kept apart here.

The target in the test is Bet BRD4 full length bromo-domain protein (Homo sapiens, UniProt O60885). The test can be described thus: Bet bromodomain TR-FRET assay (displacement of acetyl histone peptide). Type of test: binding. To be noted: 300 nM acetyl histone peptide substrate. (In general: In TR-FRET formats the signal depends on donor and acceptor labels being close together.)
Where [1] appears, read: Bet BRD4 full length bromodomain protein, read-out: IC50.

For the molecule `COc1ccccc1S(=O)(=O)Nc1cc(OCc2cccnc2)c2c(c1)C1(CCC1)C(=O)N2` [Compound 157, 2-Methoxy-N-(2′-oxo-7′-(pyridin-3-ylmethoxy)spiro[cyclobutane-1,3′-indolin]-5′-yl)benzenesulfonamide], the IC50 (usually the point on the concentration scale where inhibition reaches its midpoint) under setting [1] is under 600 nM.

For the molecule `COc1ccccc1S(=O)(=O)Nc1cc(OCc2ccccn2)c2c(c1)C1(CCC1)C(=O)N2` [Compound 158, 2-Methoxy-N-(2′-oxo-7′-(pyridin-2-ylmethoxy)spiro[cyclobutane-1,3′-indolin]-5′-yl)benzenesulfonamide], under setting [1], the IC50 is under 600 nM. For the molecule `O=C1Nc2c(OCCc3ccccn3)cc(NS(=O)(=O)c3ccc(Cl)cc3F)cc2C12CCC2` [Compound 159, 4-Chloro-2-fluoro-N-(2′-oxo-7′-(2-(pyridin-2-yl)ethoxy)spiro[cyclobutane-1,3′-indolin]-5′-yl)benzenesulfonamide], the IC50 under setting [1] is under 600 nM. Same read-out and setting: the same measure for `Cn1cncc1COc1cc(NS(=O)(=O)c2ccc(Cl)cc2F)cc2c1NC(=O)C21CCC1` [Compound 160, 4-Chloro-2-fluoro-N-(7′-((1-methyl-1H-imidazol-5-yl)methoxy)-2′-oxospiro[cyclobutane-1,3′-indolin]-5′-yl)benzenesulfonamide]: under 600 nM; for `O=C1Nc2c(OCCn3cccn3)cc(NS(=O)(=O)c3ccc(Cl)cc3F)cc2C12CCC2` [Compound 161, N-(7′-(2-(1H-pyrazol-1-yl)ethoxy)-2′-oxospiro[cyclobutane-1,3′-indolin]-5′-yl)-4-chloro-2-fluorobenzenesulfonamide]: under 600 nM. Same read-out and setting: next, `COc1ccccc1S(=O)(=O)Nc1cc(OCCN(C)C)c2c(c1)C1(CCC1)C(=O)N2` [Compound 162, N-(7′-(2-(dimethylamino)ethoxy)-2′-oxospiro[cyclobutane-1,3′-indolin]-5′-yl)-2-methoxybenzenesulfonamide]: under 600 nM; `CN(C)CCOc1cc(NS(=O)(=O)c2ccc(Cl)cc2F)cc2c1NC(=O)C21CCC1` [Compound 163, 4-Chloro-N-(7′-(2-(dimethylamino)ethoxy)-2′-oxospiro[cyclobutane-1,3′-indolin]-5′-yl)-2-fluorobenzenesulfonamide]: under 600 nM; `COc1ccccc1S(=O)(=O)Nc1cc(OCCCN(C)C)c2c(c1)C1(CCC1)C(=O)N2` [Compound 164, N-(7′-(3-(dimethylamino)propoxy)-2′-oxospiro[cyclobutane-1,3′-indolin]-5′-yl)-2-methoxybenzenesulfonamide]: under 600 nM.

`CCN(CC)CCOc1cc(NS(=O)(=O)c2ccccc2OC)cc2c1NC(=O)C21CCC1` [Compound 165, N-(7′-(2-(diethylamino)ethoxy)-2′-oxospiro[cyclobutane-1,3′-indolin]-5′-yl)-2-methoxybenzenesulfonamide]: the IC50 under setting [1] is under 600 nM. Still for that read-out and setting: the same measure for `COc1ccccc1S(=O)(=O)Nc1cc(OC(C)CN(C)C)c2c(c1)C1(CCC1)C(=O)N2` (centres unmarked) [Compound 166, N-(7′-((1-(dimethylamino)propan-2-yl)oxy)-2′-oxospiro[cyclobutane-1,3′-indolin]-5′-yl)-2-methoxybenzenesulfonamide]: under 600 nM; for `COc1ccccc1S(=O)(=O)Nc1cc(OCCN2CCCC2)c2c(c1)C1(CCC1)C(=O)N2` [Compound 167, 2-Methoxy-N-(2′-oxo-7′-(2-(pyrrolidin-1-yl)ethoxy)spiro[cyclobutane-1,3′-indolin]-5′-yl)benzenesulfonamide]: under 600 nM; for `COc1ccccc1S(=O)(=O)Nc1cc(OCCN2CCOCC2)c2c(c1)C1(CCC1)C(=O)N2` [Compound 168, 2-Methoxy-N-(7′-(2-morpholinoethoxy)-2′-oxospiro[cyclobutane-1,3′-indolin]-5′-yl)benzenesulfonamide]: under 600 nM. With `COc1ccccc1S(=O)(=O)Nc1cc(OC(=O)N2CCN(C)CC2)c2c(c1)C1(CCC1)C(=O)N2` [Compound 169, 5′-((2-Methoxyphenyl)sulfonamido)-2′-oxospiro[cyclobutane-1,3′-indolin]-7′-yl 4-methylpiperazine-1-carboxylate], the IC50 (IC50, Bet BRD4 full length bromodomain protein) was under 600 nM. For the molecule `COc1ccccc1S(=O)(=O)Nc1cc(OC(=O)N2CCOCC2)c2c(c1)C1(CCC1)C(=O)N2` [Compound 170, 5′-((2-Methoxyphenyl)sulfonamido)-2′-oxospiro[cyclobutane-1,3′-indolin]-7′-yl morpholine-4-carboxylate], the IC50 under setting [1] was under 600 nM.

`CN1CCC(Oc2cc(NS(=O)(=O)c3ccc(F)cc3F)cc3c2NC(=O)C32CCC2)CC1` [Compound 171]: the IC50 under setting [1] is under 600 nM. For the molecule `C=C(c1nccs1)c1cc(NS(=O)(=O)c2ccccc2OC)cc2c1NC(=O)C21CCC1` [Compound 172, 2-Methoxy-N-(2′-oxo-7′-(1-(thiazol-2-yl)vinyl)spiro[cyclobutane-1,3′-indolin]-5′-yl)benzenesulfonamide], under setting [1], the IC50 was under 600 nM. On the same count and under the same terms, the same measure for `O=C1Nc2c(OC3CCC(F)(F)CC3)cc(NS(=O)(=O)c3ccc(Cl)cc3F)cc2C12CCC2` [Compound 175, 4-Chloro-N-(7′-((4,4-difluorocyclohexyl)oxy)-2′-oxospiro [cyclobutane-1,3′-indolin]-5′-yl)-2-fluorobenzenesulfonamide]: 600 to 1000 nM; for `O=C1CCC(Oc2cc(NS(=O)(=O)c3ccc(Cl)cc3F)cc3c2NC(=O)C32CCC2)CC1` [Compound 176, 4-chloro-2-fluoro-N-(2′-oxo-7′-((4-oxocyclohexyl)oxy)spiro[cyclobutane-1,3′-indolin]-5′-yl)benzenesulfonamide]: under 600 nM. On the same count and under the same terms, next, `COc1ccccc1S(=O)(=O)Nc1cc(C(C)c2nccs2)c2c(c1)C1(CCC1)C(=O)N2` (centres unmarked) [Compound 177, 2-Methoxy-N-(2′-oxo-7′-(1-(thiazol-2-yl)ethyl)spiro[cyclobutane-1,3′-indolin]-5′-yl)benzenesulfonamide]: under 600 nM. The same measure, in the same setting: the same measure for `COc1ccccc1S(=O)(=O)Nc1cc(OC2CCN(C)CC2)c2c(c1)C1(CCC1)C(=O)N2` [Compound-127, 2-methoxy-N-(7′-((1-methylpiperidin-4-yl)oxy)-2′-oxospiro[cyclobutane-1,3′-indolin]-5′-yl)benzenesulfonamide]: under 600 nM. As to `COc1ccccc1S(C)(=O)=Nc1cc([N+](=O)[O-])c2c(c1)C1(CCC1)C(=O)N2` (centres unmarked) [Compound-181, 5′-(((2-Methoxyphenyl)(methyl)(oxo)-l6-sulfanylidene)amino)-7′-nitrospiro[cyclobutane-1,3′-indolin]-2′-one], the IC50 under setting [1] was over 1000 nM. Same read-out and setting: next, `COc1ccccc1S(C)(=O)=Nc1cc(N)c2c(c1)C1(CCC1)C(=O)N2` (centres unmarked) [Compound-182, 7′-Amino-5′-(((2-methoxyphenyl)(methyl)(oxo)-l6-sulfanylidene)amino)spiro[cyclobutane-1,3′-indolin]-2′-one]: over 1000 nM; `COc1ccccc1S(C)(=O)=Nc1cc(NC2CCN(C)CC2)c2c(c1)C1(CCC1)C(=O)N2` (centres unmarked) [Compound-183, 5′-(((2-Methoxyphenyl)(methyl)(oxo)-l6-sulfanylidene)amino)-7′-((1-methylpiperidin-4-yl)amino)spiro[cyclobutane-1,3′-indolin]-2′-one]: under 600 nM; `CC(C)Oc1ccccc1S(=O)(=O)Nc1cc(OC2CCN(C)CC2)c2c(c1)C1(CCC1)C(=O)N2` [Compound-184, 2-Isopropoxy-N-(7′-((1-methylpiperidin-4-yl)oxy)-2′-oxospiro[cyclobutane-1,3′-indolin]-5′-yl)benzenesulfonamide]: under 600 nM. Still for that read-out and setting: next, `COc1cccc(F)c1S(=O)(=O)Nc1cc(OC2CCN(C)CC2)c2c(c1)C1(CCC1)C(=O)N2` [Compound-185, 2-Fluoro-6-methoxy-N-(7′-((1-methylpiperidin-4-yl)oxy)-2′-oxospiro[cyclobutane-1,3′-indolin]-5′-yl)benzenesulfonamide]: under 600 nM.

On to `COc1cc(F)ccc1S(=O)(=O)Nc1cc(OC2CCN(C)CC2)c2c(c1)C1(CCC1)C(=O)N2` [Compound-189, 4-Fluoro-2-methoxy-N-(7′-((1-methylpiperidin-4-yl)oxy)-2′-oxospiro[cyclobutane-1.3′-indolin]-5′-yl)benzenesulfonamide], for which the IC50 under setting [1] was under 600 nM. Same read-out and setting: the same measure for `COc1ccccc1S(=O)(=O)Nc1cc(OCC2CN(C)C2)c2c(c1)C1(CCC1)C(=O)N2` [Compound-190, 2-Methoxy-N-(7′-((1-methylazetidin-3-yl)methoxy)-2′-oxospiro [cyclobutane-1,3′-indolin]-5′-yl)benzenesulfonamide]: under 600 nM; for `O=C1Nc2c(OC3CCNCC3)cc(NS(=O)(=O)c3ccc(Cl)cc3F)cc2C12CCC2` [Compound-197, 4-Chloro-2-fluoro-N-(2′-oxo-7′-(piperidin-4-yloxy)spiro-[cyclobutane-1,3′-indolin]-5′-yl)benzene sulfonamide]: under 600 nM; for `COc1ccccc1S(=O)(=O)Nc1cc(OCC2COCCN2)c2c(c1)C1(CCC1)C(=O)N2` (centres unmarked) [Compound-203, 2-Methoxy-N-(7′-(morpholin-3-ylmethoxy)-2′-oxospiro[cyclobutane-1,3′-indolin]-5′-yl)benzenesulfonamide]: under 600 nM. The same measure, in the same setting: the same measure for `COc1ccccc1S(=O)(=O)Nc1cc(OC2CCC(O)CC2)c2c(c1)C1(CCC1)C(=O)N2` (centres unmarked) [Compound-208, N-(7′-((4-Hydroxycyclohexyl)oxy)-2′-oxospiro[cyclobutane-1,3′-indolin]-5′-yl)-2-methoxybenzenesulfonamide]: under 600 nM; for `COc1ccccc1S(=O)(=O)Nc1cc(OC2CCN(CCO)CC2)c2c(c1)C1(CCC1)C(=O)N2` [Compound-209, N-(7′-((1-(2-hydroxyethyl)piperidin-4-yl)oxy)-2′-oxospiro[cyclobutane-1,3′-indolin]-5′-yl)-2-methoxybenzenesulfonamide]: under 600 nM; for `CS(=O)(=O)N1CCC(Oc2cc(NS(=O)(=O)c3ccc(Cl)cc3F)cc3c2NC(=O)C32CCC2)CC1` [Compound-210, 4-Chloro-2-fluoro-N-(7′-((1-(methylsulfonyl)piperidin-4-yl)-oxy)-2′-oxospiro[cyclobutane-1,3′-indolin]-5′-yl)benzenesulfonamide]: under 600 nM.
